The text below walks through data of PubChem BioAssay (NCI).

Several values for one entry are separate records, joined by “and”; a condition that tells them apart may be missing. Identical values can stand only once.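 Cultured in 96-well plates, cells were exposed to test compound for 48 hours across five concentrations. Abbreviation: GI50, concentration required for 50% inhibition of growth. The concentration for full growth arrest is given as TGI.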 A value given as a limit tells only on which side of the number the result lay.

Assay in all cases: NCI anticancer screen, dose series, 48 h
The test system of experiment [1] is HCT-116 colon.
In experiment [2] the test system is HOP-62 NSCLC.
Experiment [3] has as its system IGROV1 ovarian.
The test system of experiment [4] is LOX IMVI melanoma.
In experiment [5] the test system is MALME-3M melanoma.
Experiment [6] concerns MDA-N.
Experiment [7] deals with NCI-H460 lung.
Experiment [8] deals with OVCAR-5 ovarian.
The test system of experiment [9] is RPMI-8226 leukemia.
Experiment [10] deals with SNB-75 CNS.

In the case of `CC(=O)NC1C(OCc2ccccc2)OC(CO)C(O)C1OCC(=O)NC(C)C(=O)NC(CCC(=O)NCCCCCC(=O)Nc1ccc2c(c1)CN1C(=O)c3ccccc3C1=N2)C(N)=O` (configuration not stated), the TGI in [1], in [2], in experiment [3], in [4], in [5] and in experiment [6] was more than 100 µM throughout. Further, the TGI in experiment [7], in experiment [8], in [9] and in [10] was more than 100 µM each time.

As to `Cc1cc(=O)c2c(O)c3c(O)cc(O)c4c5c(O)cc(O)c6c(O)c7c(=O)cc(C)c8c1c2c(c34)c(c65)c78`, the GI50 in [1] was > 100 µM and 21.6 µM; in experiment [3], more than 100 µM; in experiment [4], > 100 µM and 35.4 µM; in experiment [7] it was 33.2 µM; in experiment [8], > 100 µM and 24.7 µM; in experiment [9], > 100 µM and 22.3 µM. Further, in experiment [10], the GI50 is > 100 µM and 32.3 µM. Besides, the TGI in [1] is > 100 µM and 64.2 µM; in [2], more than 73 µM; in experiment [3], more than 100 µM; in [4], more than 100 µM; in [5], more than 100 µM; in experiment [6] it was more than 100 µM. For the same molecule, the TGI in [7] was more than 100 µM; in [8], > 100 µM and 45.3 µM; in experiment [9], more than 100 µM; in [10], more than 100 µM.

On to `Cc1ccccc1NC(=S)N=Nc1c(O)[nH]c2ccccc12`, for which the TGI in experiment [1], in [2], in experiment [3], in experiment [4], in [5] and in [6] was more than 100 µM each time. For the same molecule, the TGI in [7], in [8], in experiment [9] and in [10] was more than 100 µM throughout.

On to `C=CCC1NCCC2=C1C(S(=O)(=O)c1ccc(C)cc1)c1ccccc12` (configuration not stated), for which the TGI in experiment [1] turned out to be 23.6 µM; in [2], 28.2 µM; in experiment [3] it was 23.3 µM; in experiment [4], 23.1 µM; in [5], 24 µM; in experiment [6], 20.2 µM. For the same molecule, the TGI in experiment [7] was 26.2 µM; in experiment [8] it was 33.2 µM; in [9], 27.8 µM; in experiment [10], 18.9 µM.

As to `c1ccc(C(CCN2CCCC2)c2ccccn2)cc1` (configuration not stated), the TGI in experiment [1], in [2], in experiment [3], in experiment [4], in experiment [5] and in experiment [6] was more than 100 µM throughout. The TGI in experiment [7], in experiment [8], in experiment [9] and in experiment [10] was more than 100 µM throughout.

In the case of `O=C(NCCO)c1c(O)c2ccccc2[nH]c1=O`, the TGI in experiment [1], in [2], in [3], in [4], in [5] and in experiment [6] was more than 100 µM in each case. Besides, the TGI in experiment [7], in experiment [8], in experiment [9] and in experiment [10] was more than 100 µM each time.

On to `Cc1ccccc1NC(=S)N/N=C(/c1ccccc1)c1ccccn1`, for which the TGI in [1] was 17.2 µM; in [2], 11.5 µM; in experiment [3], 15.3 µM; in experiment [4], 20.4 µM; in experiment [5], 11.8 µM; in experiment [6] it was 14.1 µM. Moreover, the TGI in [7] came out at 9.05 µM; in experiment [8], 10.6 µM; in [9], 10.2 µM; in experiment [10], 17.4 µM.

Consider `COc1ccc(N2C(=O)C3c4[nH]c5ccccc5c4C4CCC(C(C)C)CC4C3C2=O)cc1` (configuration not stated), for which the TGI in experiment [1], in experiment [2], in experiment [3], in experiment [4], in experiment [5] and in experiment [6] was more than 100 µM in each case. The TGI in experiment [7], in experiment [8], in experiment [9] and in [10] was more than 100 µM throughout.

In the case of `CN(N)C(=O)NCCCl`, the TGI in experiment [1], in experiment [2], in experiment [3], in experiment [4], in [5] and in [6] was more than 100 µM each time. Further, the TGI in experiment [7], in experiment [8], in [9] and in experiment [10] was more than 100 µM each time.

As to `COCC(=O)[C@]1(O)Cc2c(O)c3c(c(O)c2[C@@H](OC2CC(N)C(O)C(C)O2)C1)C(=O)c1c(OC)cccc1C3=O` (some centres not stated), the TGI is 1.08 µM in experiment [1]; 0.847 µM in experiment [2]; 6.83 µM in experiment [3]; 0.148 µM in experiment [4]; 0.335 µM in experiment [5]; 0.249 µM in experiment [6]. Further, the TGI in [7] amounted to 0.583 µM; in experiment [8], 1.04 µM; in experiment [9], 0.564 µM; in experiment [10] it was 0.161 µM.

For the molecule `CC(=O)O[C@H]1CC[C@@]2(C)C(=CC[C@@H]3[C@@H]2CC[C@]2(C)c4nc(N)c(C#N)cc4C[C@@H]32)C1`, the TGI in experiment [1] was more than 100 µM; in [2] it was 46.5 µM; in [3], more than 100 µM; in [4], more than 100 µM; in experiment [5], more than 100 µM; in experiment [6] it was more than 100 µM. The TGI was more than 100 µM in experiment [7], more than 100 µM in experiment [8], more than 100 µM in experiment [9] and 23.6 µM in [10].

On to `O=[N+]([O-])c1cccc2nc3ccccc3c(NCCC[N+]3([O-])CCCCC3)c12`, for which the TGI in experiment [1] was 1.04 µM; in experiment [2], 3.55 µM; in experiment [3], 6.33 µM; in [4], 2.4 µM; in experiment [5], 0.352 µM; in [6], 0.56 µM. Moreover, the TGI in experiment [7] was 1.18 µM; in experiment [8], 2.36 µM; in experiment [9] it was 10.5 µM; in [10], 1.4 µM.

With `COc1ccc(N2CCN(c3ccc4c(c3)NCC(=O)N4)CC2)cc1`, the TGI in [1], in experiment [2], in experiment [3], in [4], in experiment [5] and in experiment [6] was more than 100 µM throughout. In addition, the TGI was more than 100 µM in [7], more than 100 µM in experiment [8], 67.5 µM in experiment [9] and 93.8 µM in experiment [10].
